Key:
guinea pig atrium (β1) = molecular target: T1, guinea pig atrium (β1) (Cavia porcellus, UniProt H0W3H1); experiment: Guinea-pig right atrium test: inhibition of isoprenaline-induced increase in heart rate (β1-adrenergic receptor blocking activity, in vitro); details: isolated right atrium, 30 min incubation, 37.5° C., estimated graphically, read-out: ED50 value on guinea pig atrium (β1) (converted)
T1 construct: Spontaneously beating right atria were dissected from guinea-pigs; from tissue; host or cells: guinea-pig right atrium (strip including the sinoatrial node)
Method: 1. Guinea-pig right atrium (β1)
Spontaneously beating right atria were dissected from guinea-pigs (400±50 g). A triangular strip of atrium, including the sinoatrial node was excised together with the anterior vena cava.
The vena was fixed to a glass muscle holder and the opposite atrial muscle was connected to a Grass isometric transducer. […] Heart rate and contractile force were recorded by means of a Grass FT03C isometric transducer. Output signals amplified by an isometric transducer amplifier (J.S.I.) via a cardiotachometer (J.S.I.) were recorded on Honeywell XYY' recorder.
After washing out isoprenaline a stabilisation period of 15 min. was allowed. A drug was then added to the bath fluid for 30 min. During this incubation period possible direct chronotropic and inotropic effects of the drug were determined. Following this, a second dose-response curve for isoprenaline was produced by infusion during 10 minutes (b). The slope of the increase in rate was graphically estimated for each period of isoprenaline addition and the ratio b/a was calculated. Based on solvent experiments a ratio of less than 0.70 was considered as the criterion of inhibitory activity. ED50 -values were estimated graphically.

guinea pig trachea (β2) = molecular target: T2, guinea pig trachea (β2) (Cavia porcellus, UniProt Q8K4Z4); experiment: Guinea-pig tracheal ring test: inhibition of isoprenaline-induced relaxation (β2-adrenergic receptor blocking activity, in vitro); details: for β2 /β1: ratio of ED50 trachea (β2) to ED50 right atrium (β1), index of cardioselectivity; for IC50: tracheal ring, methacholine 1 μg/ml, isoprenaline 0.08 μg/ml, 30 min, 35° C., probit analysis, read-out: ED50 value on guinea pig trachea (β2) (converted)
T2 construct: The trachea was dissected from guinea-pigs; from tissue; host or cells: guinea-pig tracheal rings (tracheal smooth muscle)
Description: 2. Guinea-pig tracheal ring (β2)
The trachea was dissected from guinea-pigs (400±50 g). Four rings, approximately 8 mm. in width, were then cut from each trachea. Cartilaginous parts of the tracheal ring were mounted horizontally between two metal rods, one of which was attached to a glass organholder, the other rod being connected to a Grass isometric transducer. Using such a technique the tracheal smooth muscle is suspended optimally i.e. midway between the cartilaginous parts. […] The preparation was maintained at tension of 1.5 g throughout the experiment. Tension changes recorded were thus an expression of contraction or relaxation. After a stabilisation period of 30 min. contraction was induced by adding methacholine (1 μg/ml) to the bath for a 10 min. period. […] This procedure was repeated twice before adding the drug (t-33'; t-19') and once 30 min. after addition of the drug. During the incubation period any direct effects of the drug were measured.
The ratio of the ED50 -values obtained in respectively the tracheal ring test (β2) and in the right atrium test (β1) may be considered as an index of the cardioselectivity of the test drug.

T1 sequence (H0W3H1 1-470): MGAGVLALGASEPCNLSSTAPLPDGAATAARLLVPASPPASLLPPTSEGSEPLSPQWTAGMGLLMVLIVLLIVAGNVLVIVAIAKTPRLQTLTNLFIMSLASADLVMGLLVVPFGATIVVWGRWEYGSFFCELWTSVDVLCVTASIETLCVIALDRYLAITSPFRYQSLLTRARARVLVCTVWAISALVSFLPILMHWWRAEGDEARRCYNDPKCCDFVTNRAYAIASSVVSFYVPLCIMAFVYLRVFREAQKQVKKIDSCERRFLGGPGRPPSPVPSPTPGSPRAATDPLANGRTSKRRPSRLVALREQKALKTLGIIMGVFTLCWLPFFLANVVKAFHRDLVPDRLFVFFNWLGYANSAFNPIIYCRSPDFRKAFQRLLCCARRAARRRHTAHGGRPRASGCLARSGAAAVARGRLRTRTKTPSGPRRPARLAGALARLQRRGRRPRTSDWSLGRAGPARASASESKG
T2 sequence (Q8K4Z4 whole entry): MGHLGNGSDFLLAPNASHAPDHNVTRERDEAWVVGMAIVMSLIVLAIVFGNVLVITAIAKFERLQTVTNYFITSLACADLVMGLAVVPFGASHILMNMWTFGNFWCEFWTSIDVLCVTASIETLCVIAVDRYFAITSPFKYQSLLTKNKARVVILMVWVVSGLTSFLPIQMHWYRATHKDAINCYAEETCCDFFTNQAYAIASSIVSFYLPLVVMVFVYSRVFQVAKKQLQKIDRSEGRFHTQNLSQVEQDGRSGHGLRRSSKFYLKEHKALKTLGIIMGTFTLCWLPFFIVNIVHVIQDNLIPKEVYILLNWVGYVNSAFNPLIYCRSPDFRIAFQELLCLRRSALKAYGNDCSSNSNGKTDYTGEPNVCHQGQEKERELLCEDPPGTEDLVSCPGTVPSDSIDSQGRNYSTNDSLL

Row | β2 /β1 (guinea pig trachea (β2)) | IC50 (guinea pig trachea (β2)) [nM] | SMILES | IC50 (guinea pig atrium (β1)) [nM]
1 |  |  | OC(CNCC(O)C1CCc2cc(Br)ccc2O1)C1CCc2cc(Br)ccc2O1 (stereo not drawn) [Compound 10, (B,B)-α,α'-[iminobismethylene]bis[6-bromo-3,4-dihydro-2H-1-benzopyran-2-methanol]] | 75.9
2 | > 252 | > 1600 | N#Cc1ccc2c(c1)CCC(C(O)CNCC(O)C1CCc3ccccc3O1)O2 (stereo not drawn) [Compound 51] | 6.34
3 |  |  | OC(CNCC(O)C1CCc2cc(Br)ccc2O1)C1CCc2ccccc2O1 (stereo not drawn) [Compound 63] | < 89.2
4 | 12,500 | 8120 | OC(CNCC(O)C1CCc2ccccc2O1)C1CCc2ccccc2O1 (stereo not drawn) [Compound 74, (A^+ A^+)-α,α'-[iminobis(methylene)]bis[3,4-dihydro-2H-1-benzopyran-2-methanol]] | 0.65
5 | 2,154 | 7580 | OC(CNCC(O)C1CCc2ccccc2O1)C1CCc2ccccc2O1 (stereo not drawn) [Compound 75] | 3.52
6 | 2,614 | 5950 | OC(CNCC(O)C1CCc2ccccc2O1)C1CCc2ccccc2O1 (stereo not drawn) [Compound 76] | 2.3
7 | 4,074 |  | OC(CNCC(O)C1CCc2ccccc2O1)C1CCc2ccccc2O1 (stereo not drawn) [Compound 77] | 1.46
8 | 13,157 | 6770 | OC(CNCC(O)C1CCc2ccccc2O1)C1CCc2ccccc2O1 (stereo not drawn) [Compound 79] | 0.514
9 | 3,938 | 1710 | OC(CNCC(O)C1CCc2ccccc2O1)C1CCc2ccccc2O1 (stereo not drawn) [Compound 81] | 0.433
10 | > 1,000 | > 6770 | OC(CNCC(O)C1CCc2ccccc2O1)C1CCc2ccccc2O1 (stereo not drawn) [Compound 82] | 6.77
11 | > 5,435 |  | OC(CNCC(O)C1CCc2ccccc2O1)C1CCc2ccccc2O1 (stereo not drawn) [Compound 83] | 1.25
12 |  | > 24700 | OC(CNCC(O)C1CCc2cc(F)ccc2O1)C1CCc2cc(F)ccc2O1 (stereo not drawn) [Compound 84] | 
13 | 5,652 | 3270 | Cc1ccc2c(c1)CCC(C(O)CNCC(O)C1CCc3cc(C)ccc3O1)O2 (stereo not drawn) [Compound 85] | 0.579
14 | 4,166 | 12600 | CC(O)(CNCC(C)(O)C1CCc2ccccc2O1)C1CCc2ccccc2O1 (stereo not drawn) [Compound 86] | 3.02
15 |  | ≥ 27100 | OC(CNCC(O)C1CCc2ccccc2O1)C1CCc2ccccc2O1 (stereo not drawn) [Compound 88] | 
16 | 20,698 | 23200 | Cc1ccc2c(c1)CCC(C(O)CNCC(O)C1CCc3ccccc3O1)O2 (stereo not drawn) [Compound 89] | 1.12
17 | ≥ 25,000 | ≥ 26100 | Cc1ccc2c(c1)CCC(C(O)CNCC(O)C1CCc3ccccc3O1)O2 (stereo not drawn) [Compound 90] | 1.04
18 | 6,250 | 12900 | OC(CNCC(O)C1CCc2cc(F)ccc2O1)C1CCc2ccccc2O1 (stereo not drawn) [Compound 91] | 2.06

Row | β2 /β1 (guinea pig trachea (β2)) | IC50 (guinea pig trachea (β2)) [nM] | SMILES | IC50 (guinea pig atrium (β1)) [nM]
19 | 12,500 | 13000 | CC(O)(CNCC(O)C1CCc2ccccc2O1)C1CCc2ccccc2O1 (stereo not drawn) [Compound 92] | 1.04
20 | 13,750 | 5740 | Cc1ccc2c(c1)CCC(C(O)CNCC(O)C1CCc3ccccc3O1)O2 (stereo not drawn) [Compound 93] | 0.417
21 |  |  | CC(=O)Nc1ccc2c(c1)CCC(C(O)CNCC(O)C1CCc3ccccc3O1)O2 (stereo not drawn) [Compound 94] | ≥ 5.86
22 | 129 | 93.8 | CC(=O)Nc1ccc2c(c1)CCC(C(O)CNCC(O)C1CCc3ccccc3O1)O2 (stereo not drawn) [Compound 95] | 0.727
23 | 108 | 328 | CC(=O)Nc1ccc2c(c1)CCC(C(O)CNCC(O)C1CCc3ccccc3O1)O2 (stereo not drawn) [Compound 96] | 3.05
24 | 7,042 | 13000 | Cc1ccc2c(c1)OC(C(O)CNCC(O)C1CCc3ccccc3O1)CC2 (stereo not drawn) [Compound 97] | 1.85
25 | 2,400 | 15600 | Cc1ccc2c(c1)OC(C(O)CNCC(O)C1CCc3ccccc3O1)CC2 (stereo not drawn) [Compound 98] | 6.52
26 | ≥ 15,873 | ≥ 26100 | Cc1ccc2c(c1)OC(C(O)CNCC(O)C1CCc3ccccc3O1)CC2 (stereo not drawn) [Compound 99] | 1.64
27 | > 4000 | > 25200 | Cc1cc(C)c2c(c1)OC(C(O)CNCC(O)C1CCc3ccccc3O1)CC2 (stereo not drawn) [Compound 103] | 6.29
28 | > 1923 | > 6290 | Cc1cc(C)c2c(c1)OC(C(O)CNCC(O)C1CCc3ccccc3O1)CC2 (stereo not drawn) [Compound 104] | 3.27
29 | > 1000 |  | Cc1cc(C)c2c(c1)OC(C(O)CNCC(O)C1CCc3ccccc3O1)CC2 (stereo not drawn) [Compound 106] | 
30 |  |  | OC(CNCC(O)C1CCc2ccc3c(c2O1)CCCC3)C1CCc2ccccc2O1 (stereo not drawn) [Compound 110] | 5.9
31 |  |  | Cc1ccc2c(c1)CCC(C(O)CNCC(O)C1CCc3cc(C)ccc3O1)O2 (stereo not drawn) [Compound 113] | 6.29
32 | 1000 | 804 | Oc1ccc2c(c1)CCC(C(O)CNCC(O)C1CCc3ccccc3O1)O2 (stereo not drawn) [Compound 130] | 0.804
33 |  |  | Oc1ccc2c(c1)CCC(C(O)CNCC(O)C1CCc3cc(O)ccc3O1)O2 (stereo not drawn) [Compound 133] | 1.57
34 |  |  | CS(=O)(=O)Nc1ccc2c(c1)CCC(C(O)CNCC(O)C1CCc3ccccc3O1)O2 (stereo not drawn) [Compound 135] | 136
35 | > 1000 | > 27100 | OC(CNCC(O)C1CCc2ccccc2O1)C1CCc2ccccc2O1 (stereo not drawn) [Compound 138, (A,A)-α-[[[2-(3,4-dihydro-2H-1-benzopyran-2-yl)-2-hydroxyethyl]amino]methyl]-3,4-dihydro-2H-1-benzopyran-2-methanol ethanedioate (1:1)] | 27.1
36 |  |  | CC1(C(O)CNCC(O)C2CCc3ccccc3O2)CCc2ccccc2O1 (stereo not drawn) [Compound 140, (A,B)-α-[[[2-(3,4-dihydro-2H-1-benzopyran-2-yl)-2-hydroxyethyl]amino]methyl]-3,4-dihydro-2-methyl-2H-1-benzopyran-2-methanol ethanedioate (1:1). monohydrate] | ≤ 6.52
